# Measured values taken from patent publication US12427134B2, “Methods of reducing the risk of cardiovascular events in a subject with atrial fibrillation and/or atrial flutter” (priority 2019, dated 2025).
# Where two headings read alike, the source gives them in different places.
# System: hypertriglyceridemic patients with cardiovascular disease or at high risk for cardiovascular disease
# Conditions: human, in vivo
# Method: The following clinical events that were positively adjudicated by the Clinical Endpoint Committee were analyzed as tertiary endpoints for the ITT intent-to-treat (ITT) population: • Composition of total mortality, or congestive heart failure (CHF); • Composite of CV death, or new CHF; • Sudden cardiac death; • Peripheral artery disease (PAD); and • Atrial fibrillation, or atrial flutter.
# Definition of Cardiac Arrhythmia Requiring Hospitalization: An arrhythmia that either results in hospitalization (≥24 hours) during or within 24 hours of the termination of the last episode for treatment or requires continued hospitalization for treatment, including any one of the following: • Atrial arrhythmia—atrial fibrillation, atrial flutter, supraventricular tachycardia that requires cardio-version, drug therapy, or is sustained for greater than 1 minute; • Ventricular arrhythmia—Ventricular tachycardia or ventricular fibrillation requiring cardio-version and/or intravenous antiarrhythmics; and/or • Bradyarrhythmia—High-level AV block (defined as third-degree AV block or second-degree AV block), junctional or ventricular escape rhythm, or severe sinus bradycardia (typically with heart rate <30 bpm). The bradycardia must require temporary or permanent pacing.
# The objective of the following study was to determine how icosapent ethyl affected the incidence of atrial fibrillation and/or flutter in patients from the REDUCE-IT trial, as described in Example 1.
# Although not pre-specified as TEAEs of special interest, atrial fibrillation and atrial flutter were also explored post hoc as potential safety signals as discussed above in Example 7. A summary of TEAEs and SAEs of atrial fibrillation/flutter is presented in Table 83, along with positively adjudicated atrial fibrillation/flutter requiring hospitalization of ≥24 hours as a comprehensive compilation of all documented post-randomization occurrences of these atrial arrhythmias. Occurrences of atrial fibrillation or flutter not meeting endpoint criteria (i.e., not positively adjudicated as endpoints) were counted as TEAEs or SAEs, per seriousness criteria.
compound,measurement,setting,value
"CC/C=C\C/C=C\C/C=C\C/C=C\C/C=C\CCCC(=O)OCC [AMR101, eicosapentaenoic acid ethyl ester]","Adjudicated as Bradycardia/Heart Block (without Hosp. ≥24 hrs), patients (%)",,(0.0) %
same,"Adjudicated as VTA/F (without Hosp. ≥24 hrs), patients (%)",,(0.0) %
same,"Atrial fibrillation TEAE, Event Rate",,5.3%
same,"Atrial fibrillation TEAE, Number of Subjects",,215
same,"Atrial fibrillation and/or flutter adverse events, SAEs",,0.5%
same,"Atrial fibrillation and/or flutter adverse events, TEAEs",,5.8%
same,"Atrial fibrillation or atrial flutter requiring hospitalization of ≥24 hours, patients with event",,3.1%
same,"Atrial fibrillation/flutter AEs, %",,(7.7) %
same,"Atrial fibrillation/flutter AEs, (%)",,5.8%
same,"Atrial fibrillation/flutter SAEs (not positively adjudicated as endpoints), patients",,0.6%
same,"Atrial fibrillation/flutter TEAEs (not positively adjudicated as endpoints), patients",,7.7%
same,Positively Adjudicated Atrial Fibrillation/Flutter (requiring hospitalization),,127 (3.1%) n (%)
same,"Positively adjudicated Afib/Aflutter requiring ≥24 hours hospitalization, (%)",,3.1%
same,"Positively adjudicated atrial fibrillation/flutter requiring ≥24 hours hospitalization, %",,(3.1) %
same,"Serious Afib/Aflutter AEs, (%)",,0.5%
same,"Serious atrial fibrillation/flutter AEs, %",,(0.6) %
same,Subjects with at least one Atrial Fibrillation/Atrial Flutter event,,321
same,"Treatment-emergent atrial fibrillation (Serious), Event Rate",,0.5%
same,"Treatment-emergent atrial fibrillation (Serious), Number of Subjects",,21
same,"Treatment-emergent atrial fibrillation, Event Rate",,5.3%
same,"Treatment-emergent atrial fibrillation, Number of Subjects",,215
same,"Treatment-emergent atrial flutter (Serious), Event Rate",,0.0%
same,"Treatment-emergent atrial flutter (Serious), Number of Subjects",,1
same,"Treatment-emergent atrial flutter, Event Rate",,0.8%
same,"Treatment-emergent atrial flutter, Number of Subjects",,32
same,"First onset of atrial fibrillation and/or flutter, Icosapent Ethyl-Placebo Risk Diff., % (95% CI)",0.5 years,−0.00%
same,"First onset of atrial fibrillation and/or flutter, Icosapent Ethyl-Placebo Risk Diff., % (95% CI)",1 year,0.20%
same,"First onset of atrial fibrillation and/or flutter, Icosapent Ethyl-Placebo Risk Diff., % (95% CI)",1.5 years,0.51%
same,"First onset of atrial fibrillation and/or flutter, Icosapent Ethyl-Placebo Risk Diff., % (95% CI)",2 years,0.59%
same,"First onset of atrial fibrillation and/or flutter, Icosapent Ethyl-Placebo Risk Diff., % (95% CI)",2.5 years,0.78%
same,"First onset of atrial fibrillation and/or flutter, Icosapent Ethyl-Placebo Risk Diff., % (95% CI)",3 years,0.83%
same,"First onset of atrial fibrillation and/or flutter, Icosapent Ethyl-Placebo Risk Diff., % (95% CI)",3.5 years,1.17%
same,"First onset of atrial fibrillation and/or flutter, Icosapent Ethyl-Placebo Risk Diff., % (95% CI)",4 years,1.23%
same,"First onset of atrial fibrillation and/or flutter, Icosapent Ethyl-Placebo Risk Diff., % (95% CI)",4.5 years,1.00%
same,"First onset of atrial fibrillation and/or flutter, Icosapent Ethyl-Placebo Risk Diff., % (95% CI)",5 years,1.08%
same,"First onset of atrial fibrillation and/or flutter, Icosapent Ethyl-Placebo Risk Diff., % (95% CI)",5.5 years,1.00%
same,"Positively adjudicated atrial fibrillation and/or flutter, incidence",6 months,0.3%
same,"First onset of atrial fibrillation and/or flutter, Icosapent Ethyl-Placebo Risk Diff., % (95% CI)",6 years,2.07%
